Data published in PubChem BioAssay (NCI).
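A five-concentration, 48-hour dose response in 96-well plates underlies each endpoint, interpolated linearly between surrounding concentrations. Abbreviation: GI50, concentration required for 50% inhibition of growth. At the TGI there is no net growth.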

Columns and labels:
Test in all cases: NCI-60 cell line screen, 48 h
CAKI-1 renal = system: CAKI-1 renal
MOLT-4 leukemia = system: MOLT-4 leukemia
HL-60(TB) leukemia = system: HL-60(TB) leukemia
M14 melanoma = system: M14 melanoma
OVCAR-4 ovarian = system: OVCAR-4 ovarian
NCI-H460 lung = system: NCI-H460 lung
A549 NSCLC = system: A549 NSCLC
NCI/ADR-RES ovarian = system: NCI/ADR-RES ovarian
KM12 colon = system: KM12 colon
RXF 393 renal = system: RXF 393 renal

SMILES | GI50 (CAKI-1 renal) [µM] | TGI (CAKI-1 renal) [µM] | GI50 (MOLT-4 leukemia) [µM] | TGI (MOLT-4 leukemia) [µM] | TGI (HL-60(TB) leukemia) [µM] | GI50 (M14 melanoma) [µM] | TGI (M14 melanoma) [µM] | GI50 (OVCAR-4 ovarian) [µM] | TGI (OVCAR-4 ovarian) [µM] | GI50 (NCI-H460 lung) [µM] | TGI (NCI-H460 lung) [µM] | GI50 (A549 NSCLC) [µM] | TGI (A549 NSCLC) [µM] | GI50 (NCI/ADR-RES ovarian) [µM] | TGI (NCI/ADR-RES ovarian) [µM] | GI50 (KM12 colon) [µM] | TGI (KM12 colon) [µM] | TGI (RXF 393 renal) [µM] | GI50 (RXF 393 renal) [µM] | GI50 (HL-60(TB) leukemia) [µM]
Cc1ccc(NC(=O)c2ccc(NC3=C(Cl)C(=O)N(Cc4ccccc4)C3=O)cc2)cc1Cl | 1.68 | 3.81 | 2.35 | 15.1 | 14.6 | 17.6 | 55.1 | 14.7 | 66.5 | 10.3 | 27 | 12.9 | 25.6 | 3.78 | 21.7 | 31 | > 100 | – | – | –
O=C(O)C1=C(C(=O)O)Oc2ccccc2O1 | – | > 100 | – | > 100 | > 100 | – | > 100 | – | > 100 | – | > 100 | – | > 100 | – | – | – | > 100 | > 100 | – | –
CCOC(=O)C1=CSC2=NC3=C(CCC/C3=C\c3cc(OC)c(OC)c(OC)c3)C(c3cc(OC)c(OC)c(OC)c3)N12 (stereo not given) | 6.77 | > 100 | – | – | – | – | – | 1.32 | > 100 | – | – | – | – | – | – | – | – | – | – | –
CC1=C(C(=O)CC(=O)C(=O)Nc2ccccc2C)Sc2ccccc2N1 | – | > 100 | – | > 100 | > 100 | – | > 100 | – | > 100 | – | > 56.2 | – | > 100 | – | – | – | > 100 | > 100 | – | –
O=C(Nc1ccc(Cl)c(C(F)(F)F)c1)C(=O)c1c(O)c2ccccc2oc1=O | – | > 100 | – | > 100 | – | – | > 100 | – | > 100 | – | > 100 | – | > 100 | – | > 100 | – | > 100 | > 100 | – | –
NNC(=O)N/N=C1\CNC(=O)C(=O)C1c1nc2ccccc2s1 (stereo not given) | – | > 100 | – | – | > 100 | – | > 100 | – | > 100 | – | > 100 | – | > 100 | – | – | – | > 100 | > 100 | – | –
O=S(=O)(Cc1ccccc1)SCc1ccccc1 | – | > 86.2 | – | 14.3 | 21.5 | – | 27.6 | – | 54 | – | > 83.8 | – | > 100 | – | – | – | > 100 | 65.2 | – | –
O=C(CN(/C=C/C(=O)C(F)(F)F)c1ccccc1)c1ccc(F)cc1 | 19.8 | 48.9 | 23.6 | 79.8 | – | – | – | 42.5 | > 100 | 22.6 | 59.3 | 35.4 | > 100 | 23.6 | 66 | 24.9 | 69.9 | > 100 | 39.8 | –
Nc1c(-c2nc3ccccc3s2)[n+]([O-])c2ccccc2[n+]1[O-] | – | 81.8 | – | > 100 | 93.5 | – | 74.2 | – | > 100 | – | > 100 | – | > 100 | – | – | – | > 100 | – | – | –
O=C1c2ccoc2C(=O)c2oc(=O)ccc21 | – | > 62.2 | – | – | 6.8 | – | 21.8 | – | 13.5 | – | 37.1 | – | 42 | – | – | – | > 57.7 | 15.1 | – | –
Nc1n[nH]c2ccc([C@@H]3Nc4c(F)cc5[nH]ncc5c4[C@H]4C5CCC(C5)[C@@H]34)cc12 (stereo not given in full) | 0.329 | > 47.5 | 0.439 | > 45.5 | 0.642 | 0.206 | > 32.8 | 5.81 | > 85.8 | 0.352 | > 31.9 | 0.352 | > 100 | 0.234 | 5.84 | 0.287 | 4.87 | – | – | 0.243
Cc1c(C)c2ccc(OC(C)C(=O)O)cc2oc1=O (stereo not given) | – | > 100 | – | > 100 | > 100 | – | > 100 | – | > 100 | – | > 100 | – | > 100 | – | – | – | > 100 | > 100 | – | –
Cn1cc(NC(=O)c2cc(NC(=O)CCCCCCCC(=O)Nc3cc(C(=O)Nc4cc(C(=O)NCCC(=N)N)n(C)c4)n(C)c3)cn2C)cc1C(=O)NCCC(=N)N | – | 47.5 | – | 66.7 | 16.3 | – | > 100 | – | > 100 | – | 22 | – | 36.8 | – | – | – | 20 | 41.3 | – | –
Nc1ncnc2sc(Nc3ccccc3)nc12 | – | > 100 | – | > 100 | 64.7 | – | > 100 | – | > 100 | – | > 100 | – | > 100 | – | – | – | > 100 | – | – | –
CCOc1ccc(/C=C2/C(=O)N=C(N)N=C2N)cc1OCC | – | > 100 | – | > 100 | > 100 | – | > 100 | – | > 100 | – | > 100 | – | > 100 | – | – | – | > 100 | > 100 | – | –
Nc1nc(-c2ccccc2)cc(-c2cc(Cl)ccc2O)n1 | – | > 100 | – | > 100 | > 100 | – | > 100 | – | > 100 | – | > 100 | – | > 100 | – | – | – | > 100 | > 100 | – | –
Cc1cc(OC(=O)c2c(C)cc(OC(=O)c3c(C)cc(O)cc3O)cc2O)cc(O)c1C(=O)O | – | > 100 | – | > 100 | > 100 | – | > 100 | – | > 100 | – | > 100 | – | > 100 | – | – | – | > 100 | > 100 | – | –
O=C(Nc1ccc(Cl)c(Cl)c1)C1C(=O)N(c2ccc(Cl)c(Cl)c2)C(=O)/C1=N\O (stereo not given) | – | > 100 | – | > 100 | – | – | 53.8 | – | > 100 | – | – | – | > 100 | – | – | – | – | – | – | –
O=C(NN1C(=O)C(Cl)C1c1c(O)ccc2ccccc12)c1ccccc1O (stereo not given) | – | – | – | > 100 | > 100 | – | > 100 | – | > 100 | – | > 100 | – | > 100 | – | – | – | > 100 | > 100 | – | –
O=C(Nc1ccc(Br)cc1)Nc1cccc(Br)c1 | > 100 | > 100 | 5.38 | > 100 | – | 9.96 | > 100 | – | – | – | – | – | – | – | – | – | – | > 100 | > 100 | –
CC(C)(C)c1cc(C(OCCl)(C(F)(F)F)C(F)(F)F)c2c(c1)C(C(F)(F)F)(C(F)(F)F)OC21c2ccccc2C(=O)c2ccccc21 | – | > 100 | – | > 100 | – | – | > 100 | – | > 100 | – | > 100 | – | > 100 | – | – | – | > 100 | > 100 | – | –
CC(=O)OC1COC(Oc2c(C)c3c4c(c2O)[C@@H](C)CC[C@@H]4[C@@H](C)C[C@H]3C=C(C)C)C(O)C1O (stereo not given in full) | 16 | 30.9 | 2.24 | 22.5 | – | 13 | 28.6 | 25.6 | 86.5 | 16.2 | 52.2 | 16.8 | 43.7 | 15.3 | 31.3 | 17.7 | 33.8 | 42.3 | 19.8 | –
